According to patent publication US20020015941A1, “Method for treatment of neurodegenerative diseases” (The General Hospital Corporation, priority 2000, published 2002):
Read-outs that look alike come from different tables or passages of the source.

Key:
CHO and CHO-APP cells = settings: Aβ42 pre-treatment
Description: The Aβ42 peptides were obtained from Bachem and dissolved in PBS at 1 mg/ml directly before use.

[1] = tested on: capacitative calcium entry (CCE) in CHO cells; experiment: CCE by ratiometric Ca2+ imaging in CHO cells; assay type: cell-based, Chinese hamster
[2] = tested on: total Aβ and Aβ42 in D257A-PS1 CHO cells; experiment: Aβ generation in CHO cells stably expressing APP and D257A-PS1; assay type: cell-based, Chinese hamster
[3] = tested on: CHO or 293 cells stably expressing human APP
[4] = tested on: ICRAC channels in wild-type PS1 CHO cells; experiment: ICRAC by whole-cell patch clamp in stable CHO cells; assay type: cell-based, Chinese hamster; settings: wild-type PS1 CHO cells pretreated with 10 μM SKF96365 for 30 min
[5] = tested on: voltage-operated Ca2+ channels; settings: literature; cited from earlier work
[6] = tested on: capacitative Ca2+ entry (CCE) in SY5Y cells; assay type: cell-based, human
[7] = tested on: secreted APP-α in 293 cells stably expressing human APP; experiment: Secreted APPs-α by immunoprecipitation (22C11) and blot (6E10); assay type: cell-based; settings: SKF96365 treatment, 12 hour
[8] = tested on: Aβ42/Aβtotal in CHO cells stably overexpressing human APP; experiment: Aβ sandwich ELISA, CHO cells stably overexpressing human APP; assay type: cell-based, Chinese hamster; settings: CHO-APP, indicated concentrations for 12 hours (FIG. 5C)
[9] = tested on: IP3-elicited release of Ca2+ from internal stores; settings: literature; cited from earlier work
[10] = tested on: capacitative calcium entry (CCE); settings: literature; cited from earlier work

Compound: Aβ42: 42-amino acid version of amyloid β-peptide, obtained from Bachem
- cell viability (CHO and CHO-APP cells): not affected
- CCE response after Aβ42 pre-treatment ([1]; CHO and CHO-APP cells pre-incubated with 20 PM Aβ42 for 3 hours): no detectable effect

Compound: COc1ccc(CCCOC(Cn2ccnc2)c2ccc(OC)cc2)cc1 (centres unmarked) [SKF96365]
- generation of Aβ42 in D257A-PS1 cells ([2]; 50 μM SKF96365): did not restore
- generation of total Aβ in D257A-PS1 cells ([2]; 50 μM SKF96365): did not restore
- relative Aβ42 levels as share of total Aβ levels in D257A cells ([2]; following treatment with SKF96365 (50 μM)): greater than 90%
- cell viability [3]: did not alter
- degree of CCE reduction in D257A-PS1 cells compared to wild-type PS1 cells ([1]; 50 μM SKF96365, 12 hrs): much less
- ICRAC (peak current density) [4]: virtually eliminated
- effect on voltage-operated Ca2+ channels [5]: minor inhibitory effect
- Ca2+ influx (CCE) after pretreatment ([6]; 100 μM SKF96365 1 hr, 100 nM CalyA 20 min, nifedipine 1 μM, ω-conotoxin GVIA 2 μM, prior to induction of CCE): blocked
- secreted APP-α levels [7]: did not alter
- Aβ42-promoting effect versus concentration [8]: dose-dependent

Compound: ω-conotoxin GVIA
- Ca2+ influx (CCE) after pretreatment [6]: virtually no effect

Compound: C=C1[C@@H](C)[C@H]2[C@H](Cc3ccccc3)NC(=O)[C@]23[C@H](OC(C)=O)/C=C/[C@@](C)(O)C(=O)[C@@H](C)C/C=C/[C@H]3[C@@H]1O [CytoD, Cytochalasin D]
- IP3-elicited release of Ca2+ from internal stores [9]: impairs
- effect on CCE [10]: no effect
- Ca2+ influx in wild-type PS1 or M146L-PS1 cells [6]: essentially no effect

Compound: Calyculin A
- Ca2+ influx (CCE) after pretreatment [6]: blocked
